Measured values published in PMC11219871, “Epigenetic-based differentiation therapy for Acute Myeloid Leukemia” (Nature Communications, 2024).
“And” between values parts separate entries of the source, which are not always exact repeats. Identical values can stand only once.

Key:
[1] = test system: primary AML patient samples; test: Differentiation assay, CD11b flow cytometry in primary samples; assay type: cell-based, human; conditions: for CD11b-positive cells (%): daily 48 h
Experimental: (§1) Next, the cells were washed twice with phosphate-buffered saline (PBS) and resuspended in 1X Binding Buffer at a concentration of 1 × 10^6 cells/mL. An 8-µL aliquot of APC-CD11b (BD Pharmingen, Franklin Lakes, NJ, USA) and 1 µL of FITC annexin-V (AV) (BD Pharmingen, Franklin Lakes, NJ, USA) antibodies were added and incubated for 15 min at room temperature in the dark. Finally, after the addition of 400 µL of 1X Binding Buffer to each tube, samples were collected on a BD FACSCanto flow cytometer (Becton Dickinson, San Jose, CA, USA) and analyzed using FlowJo software.
Peripheral blood (PB) specimens were obtained from preliminarily diagnosed AML patients who had not received any treatment before specimens were collected. All patients gave informed consent for their participation in this study, which was approved by the Clinical Research Ethics Committee of Clínica Universidad de Navarra. Written informed consent was obtained from each participant. PB was mixed with an ammonium chloride-potassium (ACK) buffer lysis (0.15 mol/L NH4Cl, 10 mmol/L KHCO3, 0.1 mmol/L ethylenediaminetetraacetic acid, pH 7.2) at a 1:2 volume ratio by gentle inversion, incubated for 10 min and centrifuged at 200 g for 10 min. The cell pellet was washed twice with PBS and finally resuspended in EGM2 medium (Cambrex Bioscience, Walkersville, MD). EGM2 contains 2% fetal calf serum, hydrocortisone, heparin, antibiotics, epidermal growth factor, human fibroblast growth factor, insulin-like growth factor, vascular endothelial growth factor, and ascorbic acid. The cells were plated at 1 × 10^6 cells/mL and treated daily with 200 and 500 nM of CM-444 and CM-1758 for 48 h. Next, the differentiation assay was performed as described above.

ML-2 = test: Differentiation-apoptosis assay, CD11b / annexin-V / Sytox Green / myeloid markers flow cytometry; assay type: cell-based, human; parameters: Cell viability: concentration or dose not given beside the values; CD11b levels: unit not given here
How it was run: (§2)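 Differentiation and apoptosis were read by flow cytometry after 15 min dark staining at room temperature with APC-CD11b plus FITC annexin-V, 1 × 10^6 cells/mL in binding buffer. Myeloid markers CD13, HLA-DR and CD14 were stained in separate runs for 30 min, followed by lysis and washing.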

MOLM-13 = test: as above; assay type: cell-based, human; parameters: Cell viability (%): concentration or dose not given beside the values; CD11b levels: unit not given here
How it was run: as §2

TF-1 = test: Differentiation assay, CD11b / annexin-V flow cytometry; assay type: cell-based; conditions: TF-1 cell line; replicates 1-3 (Figure 2A);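 note: daily treatment at a GI50-based fraction of each compound's GI50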
Experimental: as §1

NB-4 = test: as above; assay type: cell-based; conditions: NB4 cell line; replicates 1-3 (Figure 2A)
Experimental: as §1

KASUMI-1 = test: as above; assay type: cell-based; conditions: KASUMI-1 cell line; replicates 1-3 (Figure 2A)
Experimental: as §1

GF-D8 = test: as above; assay type: cell-based; conditions: GF-D8 cell line; replicates 1-3 (Figure 2A)
Experimental: as §1

THP-1 = test: as above; assay type: cell-based; conditions: THP-1 cell line; replicates 1-3 (Figure 2A)
Experimental: as §1

MONO-MAC-6 = test: as above; assay type: cell-based; conditions: MONOMAC-6 cell line; replicates 1-3 (Figure 2A)
Experimental: as §1

OCI-AML2 = test: as above; assay type: cell-based; conditions: OCI-AML-2 cell line; replicates 1-3 (Figure 2A)
Experimental: as §1

UT-7 = test: as above; assay type: cell-based; conditions: UT7 cell line; replicates 1-3 (Figure 2A)
Experimental: as §1

HEL = test: as above; assay type: cell-based; conditions: HEL cell line; replicates 1-3 (Figure 2A)
Experimental: as §1

M-O7e = test: as above; assay type: cell-based; conditions: MO7e cell line; replicates 1-3 (Figure 2A)
Experimental: as §1

OCI-AML3 = test: as above; assay type: cell-based; conditions: OCI-AML-3 cell line; replicates 1-3 (Figure 2A)
Experimental: as §1

[2] = ML-2, 48 h, replicates (Fig 4A)
[3] = ML-2, daily treatment, time 0 days, replicates 1-3 (Figure 2B)
[4] = ML-2, daily treatment, time 2 days, replicates 1-3 (Figure 2B)
[5] = ML-2, daily treatment, time 4 days, replicates 1-3 (Figure 2B)
[6] = ML-2, daily treatment, time 6 days, replicates 1-3 (Figure 2B)
[7] = ML-2, daily treatment, time 8 days, replicates 1-3 (Figure 2B)
[8] = MOLM-13, 48 h treatment, replicates 1-3 (Suppl. Fig. 5A)
[9] = MOLM-13, daily treatment, time 0 days
[10] = MOLM-13, daily treatment, time 2 days
[11] = MOLM-13, daily treatment, time 4 days
[12] = MOLM-13, daily treatment, time 6 days
[13] = MOLM-13, daily treatment, time 8 days

## COc1cc2nc(-c3cc(C)oc3C)cc(NCC3CCN(c4ncc(C(=O)NO)cn4)CC3)c2cc1OC [CM-1758, 2-[4-[[[2-(2,5-dimethyl-3-furyl)-6,7-dimethoxy-4-quinolyl]amino]methyl] -1-piperidyl]pyrimidine-5-carbohydroxamic acid]
[1]; primary AML patient sample 1 (Figure 2C)
  CD11b (%): 43.21%
[1]; primary AML patient sample 2 (Figure 2C)
  CD11b (%): 30.14%
[1]; primary AML patient sample 3 (Figure 2C)
  CD11b (%): 23.69%
[1]; primary AML patient sample 4 (Figure 2C)
  CD11b (%): 38.45%
[1]; primary AML patient sample 5 (Figure 2C)
  CD11b (%): 30.14%
[1]; primary AML patient sample 6 (Figure 2C)
  CD11b (%): 35.24%
[1]; primary AML patient sample 7 (Figure 2C)
  CD11b (%): 35.47%
[1]; primary AML patient sample 8 (Figure 2C)
  CD11b (%): 25.49%
[1]; sample AML-1, 200 nM
  CD11b-positive cells (%): 30.6%
[1]; sample AML-1, 500 nM
  CD11b-positive cells (%): 43.2%
[1]; sample AML-2, 200 nM
  CD11b-positive cells (%): 15.2%
[1]; sample AML-2, 500 nM
  CD11b-positive cells (%): 30.1%
[1]; sample AML-3, 200 nM
  CD11b-positive cells (%): 15.5%
[1]; sample AML-3, 500 nM
  CD11b-positive cells (%): 23.7%
[1]; sample AML-4, 200 nM
  CD11b-positive cells (%): 21.9%
[1]; sample AML-4, 500 nM
  CD11b-positive cells (%): 38.4%
[1]; sample AML-5, 200 nM
  CD11b-positive cells (%): 19.2%
[1]; sample AML-5, 500 nM
  CD11b-positive cells (%): 30.1%
[1]; sample AML-6, 200 nM
  CD11b-positive cells (%): 27.2%
[1]; sample AML-6, 500 nM
  CD11b-positive cells (%): 35.2%
[1]; sample AML-7, 200 nM
  CD11b-positive cells (%): 30.1%
[1]; sample AML-7, 500 nM
  CD11b-positive cells (%): 35.5%
[1]; sample AML-8, 200 nM
  CD11b-positive cells (%): 16.2%
[1]; sample AML-8, 500 nM
  CD11b-positive cells (%): 25.5%
ML-2; ML-2, 260 nM CM-444 or 210 nM CM-1758 daily for 4 days, before injection
  percentage of CD11b: > 90%
ML-2; ML-2, 48 h
  CD11b (%): 75.6%
  CD13 (%): 98.6%
  CD14 (%): 2.86%
  HLA-DR (%): 17.4%
ML-2; [2]
  CD11b: 64.3% and 61.7% and 64.6%
  Cell viability: 89.3% and 72.6% and 87.1%
ML-2; ML-2, after 6–8 days of treatment
  differentiation level (CD11b): ~90%
ML-2; [3]
  Annexin-V (%): 0% and 1.81% and 2.3%
  CD11b (%): 9.3% and 9.32% and 7.24%
ML-2; [4]
  Annexin-V (%): 0% and 5.74% and 8.47%
  CD11b (%): 46.98% and 27.2% and 35.8%
ML-2; [5]
  Annexin-V (%): 10.26% and 4.49% and 5.25%
  CD11b (%): 56.51% and 40.8% and 55.87%
ML-2; [6]
  Annexin-V (%): 4.87% and 1.99% and 9.87%
  CD11b (%): 77.98% and 70% and 78.6%
ML-2; [7]
  Annexin-V (%): 5.37% and 6.87% and 10.45%
  CD11b (%): 88.06% and 83.2% and 89.7%
ML-2; ML-2 cell line, replicates 1-3 (Figure 2A)
  CD11b (%): 53.45% and 67.6% and 52.5%
ML-2; ML-2 treated daily for 48 h, replicates (Fig 6E)
  CD11b levels: 45.9 and 51.7 and 43.7
MOLM-13; MOLM-13, 48 h
  CD11b (%): 93.0%
  CD13 (%): 54.8%
  CD14 (%): 35.6%
  HLA-DR (%): 27.9%
MOLM-13; [8]
  CD11b (%): 93.5% and 87.6% and 86.0%
  Cell viability (%): 71.1% and 73.4% and 72.7%
MOLM-13; MOLM-13, after 6–8 days of treatment
  differentiation level (CD11b): ~90%
MOLM-13; MOLM-13, daily treatment for 48 h, replicates 1-3 (Suppl. Fig. 9A)
  CD11b levels: 61.5 and 58.4 and 65.3
MOLM-13; [9]
  Annexin-V (%): 4.46% and 6.55% and 4.89%
  CD11b (%): 6.62% and 4.5% and 6.9%
MOLM-13; [10]
  Annexin-V (%): 11.4% and 10.2% and 9.87%
  CD11b (%): 73% and 68.5% and 65.7%
MOLM-13; [11]
  Annexin-V (%): 23.3% and 19.7% and 17.2%
  CD11b (%): 83.3% and 80.2% and 78.3%
MOLM-13; [12]
  Annexin-V (%): 23.9% and 24.2% and 20.6%
  CD11b (%): 89.9% and 85.1% and 83.1%
MOLM-13; [13]
  Annexin-V (%): 29.4% and 27.5% and 25.4%
  CD11b (%): 91.9% and 90.1% and 92.4%
MOLM-13; MOLM-13 cell line, replicates 1-3 (Figure 2A)
  CD11b (%): 70.54% and 69.2% and 63%
TF-1
  CD11b (%): 72.3% (2×) and 76.2%
NB-4
  CD11b (%): 41.82% and 48.2% and 36.4%
KASUMI-1
  CD11b (%): 24.2% and 19.4% and 12.5%
GF-D8
  CD11b (%): 27.3% and 20% and 28.6%
THP-1
  CD11b (%): 90.5% and 96.2% and 93.2%
MONO-MAC-6
  CD11b (%): 61.3% and 69.1% and 60.1%
OCI-AML2
  CD11b (%): 39.01% and 39.3% and 37.1%
UT-7
  CD11b (%): 21.8% and 25.6% and 23.1%
HEL
  CD11b (%): 14.82% and 10.2% and 20.4%
M-O7e
  CD11b (%): 17.02% and 15.8% and 12.9%
OCI-AML3
  CD11b (%): 51.4% and 49.5% and 45.2%
